Here are results for two compounds from patent publication US20040197411A1, “Acceptably non-hygroscopic formulation intermediate comprising a hygroscopic drug” (priority 2002, published 2004).

This series is described as follows: Moisture sorption analysis by dynamic vapor sorption (DVS). In kind it is physicochemical. The following applies: for hygroscopicity and deliquescence: general statement, conditions not given. How it is done: Compound 1 was prepared according to processes described in WO 01/72703. A sample of Compound 1 in substantially dry, amorphous form was subjected to moisture sorption analysis. Dynamic vapor sorption (DVS) was used to determine mass increase (relative to dry mass) was monitored over an adsorption range of 10-70% relative humidity (RH) in increments of 10%. As shown by the moisture sorption isotherm represented in FIG. 1, Compound 1 is hygroscopic.

For `CC(=N)NCCSC[C@](C)(N)C(=O)O` [S-[2-[(1-iminoethyl)amino]ethyl]-2-methyl-L-cysteine], the hygroscopicity and deliquescence entry is “extremely hygroscopic and deliquescent”.
Consider `CC(=N)NCCSC[C@](C)(N)C(=O)O.Cl.Cl` [Compound 1, S-[2-[(1-iminoethyl)amino]ethyl]-2-methyl-L-cysteine dihydrochloride], for which the hygroscopicity and deliquescence result is “extremely hygroscopic and deliquescent”. In addition, the “moisture sorption isotherm (mass increase relative to dry mass)” value (substantially dry, amorphous form, 10-70% RH in increments of 10%, FIG. 1) is recorded as “hygroscopic”.
